Measured values reported in PubChem BioAssay AID668 (University of Pittsburgh Molecular Library Screening Center, 2007).
pIC50: −log10 of the molar value.

Target: M-phase inducer phosphatase 2 (Homo sapiens) (UniProt P30305)
Assay: Cdc25B phosphatase inhibitors with catalase present, dose response, biochemical, probe assessment (AID 668)
Conditions: recombinant Cdc25B catalytic domain, phosphatase activity

Chain of M-phase inducer phosphatase 2 (Homo sapiens) (P30305 whole entry, looked up): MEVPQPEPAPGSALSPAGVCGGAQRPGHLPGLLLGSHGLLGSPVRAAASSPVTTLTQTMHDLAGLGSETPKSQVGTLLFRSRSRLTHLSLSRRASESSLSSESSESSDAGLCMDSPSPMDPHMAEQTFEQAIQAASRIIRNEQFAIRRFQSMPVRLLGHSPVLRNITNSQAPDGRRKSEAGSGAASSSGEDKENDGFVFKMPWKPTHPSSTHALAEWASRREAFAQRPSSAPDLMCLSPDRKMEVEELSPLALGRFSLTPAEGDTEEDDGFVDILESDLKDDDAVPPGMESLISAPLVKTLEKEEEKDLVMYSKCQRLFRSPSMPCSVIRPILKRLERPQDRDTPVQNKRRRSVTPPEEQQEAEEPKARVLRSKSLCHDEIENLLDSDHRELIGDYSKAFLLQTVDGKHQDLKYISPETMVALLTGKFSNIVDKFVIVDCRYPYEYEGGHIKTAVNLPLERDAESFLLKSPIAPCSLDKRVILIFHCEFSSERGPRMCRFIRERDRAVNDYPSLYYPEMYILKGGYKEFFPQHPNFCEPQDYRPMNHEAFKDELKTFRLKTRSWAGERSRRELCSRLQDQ

For `c1ccc(CSc2nnc(-c3ccco3)c(-c3ccco3)n2)cc1`, the pIC50 was 4.81.
`COc1cccc2c(C)c(C(=O)O)[nH]c12` was tested, and the pIC50 was 5.15.
